The values that follow come from US10967029B2, “Method of using Cistanche tubulosa extract to prevent, slow down, or treat an eye disease caused by oxidative stress” (Sinphar Pharmaceutical Co., Ltd., priority 2014, dated 2021).

Broadly, the cell viability is the share of living cells, or the viability signal relative to a control. Low values mean more harm to the cells, high ones less harm to the cells. As a reminder, the IC25 is the concentration at which the effect reaches the 25% level. The low end stands for an effect from little substance, the high end for a need for much substance. In general, IC75 refers to the concentration needed for an effect of 75%. The low end stands for greater potency, the high end for weaker potency. What is called IC50 is the concentration that inhibits the measured activity by half.

Data set [1] relates to RPE cells. The data set is classed as cell-based. The conditions noted are these: 0.1 mM H2O2. How it is done:
(§1) The cell culturing comprises the following steps. • 1. RPE cell clones were taken out from anti-frozen tubes in liquid nitrogen and quickly moved to a sterile hood after thawed in 37° C. water bath for 1 minute. RPE cell clones were taken out and placed in 10 cm dishes having 10 mL DMEM (Dulbecco's Modified Eagle Medium) therein. 10% inactivated fetal bovine serum (FBS), 2 mM L-glutamine, 100 U/mL penicillin, and 100 µg/mL streptomycin were added into the DMEM. • 2. The dishes were placed in a 37° C. incubator and cultured in conditions of a mixture gas of 95% air and 5% CO2, as well as 70% humidity. The old mediums were replaced by fresh mediums every 3 days. Serum-free DMEM was used instead of the mediums before performing experiments. • 3. When cells proliferated to nearly saturation, the numbers of cells were counted by a cell counter. […] Since RPE cells are attachment type cells, the medium containing the cells was transferred into 15 mL centrifugation tubes and then centrifuged at 72 g for 5 mines at room temperature when the medium was replaced. After centrifugation, the supernatant was removed and then fresh medium was added for culturing.
(§2) Before experiment, the medium was replaced by serum-free medium. Fixed quantity of RPE cells (2×10^5 cells/mL) were respectively placed in 96 wells of a plate. […] Next, different concentrations of oxidative stress inducer were added to treat the cells. […] The blue light having a wavelength of 480 nm and an illuminance of 350 lux was emitted by a blue light-emitting-diode (LED). Subsequently after treated by irradiating with blue light for 7 days or oxidative stress inducer for 24 hours, 0.5 mg/mL of MTT was added and reacted at 37° C. for 2 hours. Afterwards, 200 μL DMSO was added to each well. After slight mixing, the plate was vibrated in the dark for 10 minutes. After completely dissolving the residual cells, the enzyme immunoassay analyzer was used to detect the absorbance of each well. The cells untreated by oxidative stress inducers and embodiments were used as the control group. […]

Data set [2] relates to RPE cells. The experiment in a line: Protective effect to blue light irradiation-induced cytotoxicity (MTT assay). The conditions noted are these: for most effective action concentration range to blue light irradiation: blue light-induced cytotoxicity. How it is done:
as §1
Before experiment, the medium was replaced by serum-free medium. Fixed quantity of RPE cells (2×10^5 cells/mL) were respectively placed in 96 wells of a plate. […] Next, different concentrations of oxidative stress inducer were added to treat the cells. […] The blue light having a wavelength of 480 nm and an illuminance of 350 lux was emitted by a blue light-emitting-diode (LED). […] Afterwards, 200 μL DMSO was added to each well. After slight mixing, the plate was vibrated in the dark for 10 minutes. After completely dissolving the residual cells, the enzyme immunoassay analyzer was used to detect the absorbance of each well. The cells untreated by oxidative stress inducers and embodiments were used as the control group.
The statistical analysis was performed by Student's t-test or one way ANOVA. If P<0.05, it indicates a significant difference.
The concentrations of embodiment 3 were 15.625, 31.25, and 62.5 μg/mL. […]

Data set [3] concerns RPE cells. As to conditions: for most effective action concentration range to t-BHP: t-BHP-induced cytotoxicity. How it is done:
as §1, §2

Data set [4] deals with RPE cells. Nature of the data set: Cell viability and growth measurement of RPE cells (MTT assay), cytotoxicity test. The data set is classed as cell-based. As to conditions: cytotoxicity to RPE cells, 24 hours. How it is done:
The cell culturing comprises the following steps. • 1.
Before experiments, the medium was replaced by serum-free medium. […] After placed in an incubator, the cells were cultured for 24 hours after treated by various concentrations of embodiments 1-5. Next, 1.0 mg/mL 3-(4,5-Dimethylthiazol-2-yl)-2,5-diphenyltetrazolium bromide (MTT) was added and reacted at 37° C. for 1 hour. Afterwards, 200 μL dimethyl sulfoxide (DMSO) was added into each well and shake in the dark at room temperature for 10 minutes after slight mixing. After the residual cells were completely dissolved, an enzyme immunoassay analyzer (MRX microplate reader, USA) was used to detect the 550 nm absorbance of each well. The cells untreated by embodiments were used as a control group after culturing for 24 hours.
One purpose of the example 1 is to test the cytotoxicity of the embodiments 1-5 to the RPE cells and the promotion of the embodiments 1-5 to the RPE cell growth. The mitochondrial enzyme of live cells can reduce the MTT to formazan of purple crystal dissolved by DMSO. In short, the metabolic activity of cells is used to determine whether cells are alive or not. The measured dissolving absorbance is equal to the cell viability. Therefore, the more the cells alive, the higher the absorbance. The calculating formula of the cell viability was shown below. Cell viability (%)=(light absorbance after cells treated by drugs for 24 hours/light absorbance of the control group after 24 hours)×100%
If P<0.05, it indicates a significant difference.
Referring to FIGS. 1-5, which are diagrams showing cytotoxicity testing results according to the instant disclosure respectively.
(In general: Tetrazolium dyes change colour on reduction, which living cells bring about.)

For data set [5], the system named is RPE cells. Nature of the data set: Protective effect to NaN3-induced cytotoxicity (MTT assay). As to conditions: 10 mM NaN3 (viability about 50% without treatment); medium and high concentrations. How it is done: as §1, with “After centrifugation, the supernatant was removed and then fresh medium was added for culturing.” left out
Before experiment, the medium was replaced by serum-free medium. Fixed quantity of RPE cells (2×10^5 cells/mL) were respectively placed in 96 wells of a plate. […] After completely dissolving the residual cells, the enzyme immunoassay analyzer was used to detect the absorbance of each well. […]

In brackets after ≈: the same amount, converted by molar mass. Read-outs that look alike come from different tables or passages of the source.

As to `C[C@@H]1O[C@@H](O[C@@H]2[C@@H](O)[C@H](OCCc3ccc(O)c(O)c3)O[C@H](CO)[C@H]2OC(=O)/C=C/c2ccc(O)c(O)c2)[C@H](O)[C@H](O)[C@H]1O` [Embodiment 3, Acteoside], in data set [1], the “protection of cells from H2O2 damage” value is given as “protected”. Besides, the cell viability entry in data set [2] (5 days, 31.25 µg/mL) was “above 90%”. Moreover, in data set [2], the “most effective action concentration range to blue light irradiation” value is “between low and medium concentrations”. In addition, in data set [3], the “cytotoxicity response at high concentration” value is “reasonable cytotoxicity responses were observed”; the “most effective action concentration range to t-BHP” value is “between low and medium concentrations”. In data set [4], this compound displayed an IC25 of 31.25 µg/mL (≈ 50 µM) and an IC75 of 125 µg/mL (≈ 200 µM). Further, in data set [4] (read-out: IC50), the half-maximal inhibitory concentration (IC50) came to 62.5 µg/mL (≈ 100 µM).
As to echinacoside [Embodiment 2], in data set [1], the “protection of cells from H2O2 damage” value is “protected”. Besides, the “most effective action concentration range to t-BHP” value in data set [3] was “between low and medium concentrations”. In data set [4], the IC25 was 50 µg/mL, the IC50 came out at 75 µg/mL and the IC75 was 100 µg/mL.
Regarding Tubuloside A [Embodiment 5], the “protection of cells from H2O2 damage” value in data set [1] is “protected”. The cell viability in data set [5] is listed as ~100%. Moreover, in data set [4], the concentration for an effect of 25% (IC25) was 150 µg/mL, the IC50 amounted to 200 µg/mL and the concentration for an effect of 75% (IC75) stood at 250 µg/mL.
As for `C[C@@H]1O[C@@H](O[C@@H]2[C@@H](O)[C@H](OCCc3ccc(O)c(O)c3)O[C@H](COC(=O)/C=C/c3ccc(O)c(O)c3)[C@H]2O)[C@H](O)[C@H](O)[C@H]1O` [Embodiment 4, Isoacteoside], the “most effective action concentration range to blue light irradiation” value in data set [2] is “between low and medium concentrations”. The cell viability in data set [5] was ~100%. In data set [4], this compound returned a concentration for an effect of 25% (IC25) of 31.25 µg/mL (≈ 50 µM) and a concentration for an effect of 75% (IC75) of 125 µg/mL (≈ 200 µM). In addition, the IC50 in data set [4] (read-out: IC50) amounted to 62.5 µg/mL (≈ 100 µM).
